Data as given in patent publication US4596820A, “1,7-diphenyl-3-methylaza-7-cyano-8-methylnonane for use in the treatment of diseases” (priority 1983, dated 1986).

Legend:
[1] = Overall findings (oral availability, duration of action, toleration); conditions: in vivo
[2] = in vivo
[3] = test system: blood pressure and heart rate; test: Blood pressure and heart rate of conscious spontaneously hypertensive rats; format: in vivo; conditions: 20 mg/kg oral
cerebral hypoxia = test: Tolerance of the mouse to hypoxia (survival of oxygen-deficient ventilation); format: in vivo, mouse (female NMRI Ivanovas); conditions: for Effect on number of animals surviving hypoxia after 3 minutes: 96.5% N2 and 3.5% O2, dose-dependent for A and its antipodes; for ED 50% (dose at which 50% of the animals survived oxygen-deficient ventilation for 3 minutes): 60 min
Procedure: To test for tolerance to hypoxia, female mice (NMRI Ivanovas, weight 24-26 g) were introduced individually into glass tubes through which a gas mixture consisting of 96.5% of N2 and 3.5% of O2 flowed via a rotameter, at a rate of 4 liters/min. The time from the beginning of passage of the gas mixture until death occurred was measured.
Tolerance of the mouse to hypoxia, test carried out 1 hour
after oral administration of the test substances.
ED 50% means that, at the stated dose, 50% of the animals
survived oxygen-deficient ventilation for 3 minutes.

AV conduction = test: Effect on AV conduction in the dog; format: in vivo
Procedure: The effect on the AV conduction was tested on a species suitable for this purpose, ie. the dog.

[4] = test system: hypoxic reduction in the level of creatine phosphate, adenosine triphosphate and glycogen in the heart muscle; test: animal or person; format: in vivo, rat (male Wistar); conditions: for Relative activity: relative to (±) A = 1; for ED 50% (pretreatment dose which increases the ATP level by 50% compared with the hypoxic control group): 360 min
Procedure: Male Wistar rats weighing 250-300 g were anesthetized intraperitoneally with thiobutabarbital (100 mg/kg of body weight) and then subjected to standardized ventilation with an oxygen-deficient mixture (2% of O2 and 98% of N2) for 7 minutes. Using the freeze-stop technique, the apex of the heart was removed, mechanically comminuted and then digested with the addition of 0.6N perchloric acid. After centrifuging, creatine phosphate (according to Bergmeyer, H. U., Methoden der enzymatischen Analyse, Verlag Chemie, Weinheim, 2, (1974), 1825), adenosine triphosphate (according to Biochem. Biophys. Acta (Amst.) 1 (1947), 292) and glycogen (according to Biochem. J. 56 (1954), 1825) were determined in the supernatant liquid.
The test substances were administered to the conscious animals at various times before they were anesthetized and before the subsequent ventilation with an oxygen-deficient mixture. The percentage difference in the myocardial concentrations of adenosine triphosphate (ATP), creatine phosphate (CP) and glycogen in animals pretreated with the test substance compared with untreated hypoxic control animals was determined.
The ED 50% is the pretreatment dose of test substance which
increases the ATP level by 50% compared with the hypoxic

[5] = test system: heart and the circulation; conditions: similar doses; cited from earlier work
[6] = test system: PQ interval and myocardial contractility; test: PQ interval and myocardial contractility in anesthetized pigs; format: in vivo, pig; conditions: 0.2 mg/kg intravenously
[7] = 5 mg/kg oral, 6 hours after administration, vs untreated hypoxic controls
[8] = 10 mg/kg oral, 6 hours after administration, vs untreated hypoxic controls
[9] = 20 mg/kg oral, 2 hours after administration
[10] = 20 mg/kg oral, 6 hours after administration (Table 2)
[11] = 20 mg/kg oral, 6 hours after administration (Table 3, comparison with verapamil)
[12] = 20 mg/kg oral, 6 hours after administration, vs untreated hypoxic controls (Table 1)
[13] = 20 mg/kg oral, 12 hours after administration
[14] = 20 mg/kg oral, 18 hours after administration
[15] = 20 mg/kg oral, 24 hours after administration
[16] = rat, 6 hours after oral administration
[17] = mouse, 1 hour after oral administration
[18] = 40 mg/kg oral, 6 hours after administration
[19] = 80 mg/kg oral, 6 hours after administration

## CC(C)C(C#N)(CCCN(C)CCc1ccccc1)c1ccccc1 (racemic) [A, 1,7-diphenyl-3-methylaza-7-cyano-8-methylnonane]
[1]
  Duration of action: long duration of action
[1]; po
  Oral availability: great oral availability
[2]
  Reduction in the blood pressure: does not result in a reduction in the blood pressure
  Toleration: particularly well tolerated
[3]; 6 hours after administration
  Blood pressure, Change in %: -5%
  Heart rate, Change in %: -5%
[3]; initial value 229
  Blood pressure, 6 hours after administration of the substance: 217
[3]; initial value 398
  Heart rate, 6 hours after administration of the substance: 378
Cerebral hypoxia
  Effect on number of animals surviving hypoxia after 3 minutes: increase the number of experimental animals which survive after 3 minutes
Cerebral hypoxia; Mus musculus, po, 1 h, mouse, 1 hour after oral administration, read-out: ED 50% (dose at which 50% of the animals survived oxygen-deficient ventilation for 3 minutes)
  ED50: 88 mg/kg
Cerebral hypoxia; mouse
  Protective action against cerebral hypoxia compared with verapamil: superior protective action, compared with verapamil
AV conduction; in vivo
  Risk of provoking conduction disturbances compared with verapamil: substantially lower in the case of A than for verapamil
  Therapeutic index compared with verapamil: substantially greater therapeutic index than verapamil
AV conduction; in vivo, iv, 0.4 mg/kg
  Effect on AV conduction: no adverse effect at all on the AV conduction
[4]; 5 mg/kg oral (lowest dose tested)
  Inhibition of the hypoxic reduction in CP, ATP and glycogen in the heart muscle: substantially inhibits the hypoxic reduction in the level of creatine phosphate, adenosine triphosphate and glycogen in the heart muscle
[4]; [7]
  Percentage difference in the amount of ATP: 24%
  Percentage difference in the amount of CP: 29%
  Percentage difference in the amount of Glycogen: 10%
[4]; [8]
  Percentage difference in the amount of ATP: 37%
  Percentage difference in the amount of CP: 47%
  Percentage difference in the amount of Glycogen: 27%
[4]; [9]
  Percentage difference in the amount of ATP: 31%
  Percentage difference in the amount of CP: 41%
  Percentage difference in the amount of Glycogen: -1%
[4]; [10]
  Percentage difference in the amount of ATP: 63%
  Percentage difference in the amount of CP: 80%
  Percentage difference in the amount of Glycogen: 50%
[4]; [11]
  Percentage difference in the amount of ATP: 63%
  Percentage difference in the amount of CP: 80%
  Percentage difference in the amount of Glycogen: 50%
[4]; [12]
  Percentage difference in the amount of ATP: 63%
  Percentage difference in the amount of CP: 80%
  Percentage difference in the amount of Glycogen: 50%
[4]; [13]
  Percentage difference in the amount of ATP: 42%
  Percentage difference in the amount of CP: 42%
  Percentage difference in the amount of Glycogen: 19%
[4]; [14]
  Percentage difference in the amount of ATP: 40%
  Percentage difference in the amount of CP: 32%
  Percentage difference in the amount of Glycogen: 16%
[4]; [15]
  Percentage difference in the amount of ATP: 11%
  Percentage difference in the amount of CP: 22%
  Percentage difference in the amount of Glycogen: 26%
[4]; 20 mg/kg oral, rat
  Cardioprotective effect at the dose: maximum cardioprotective effect
[4]; 20 mg/kg oral, CP and ATP
  Onset of protective effect: clearly detectable for the parameters CP and ATP as soon as 2 hours after administration
[4]; 20 mg/kg, CP and ATP
  Duration of protective effect: up to 24 hours
[4]; 6 hours after oral administration
  Cardioprotective action compared with verapamil: substantially superior to that of verapamil
[4]; Rattus norvegicus, po, 6 h, rat, 6 hours after oral administration, read-out: ED 50% (pretreatment dose which increases the ATP level by 50% compared with the hypoxic control group)
  ED50: 13.6 mg/kg
[4]; oral, rat
  Dose dependence of protective effect: An increase in dose results in a greater protective effect
[4]; [16]
  Relative activity: 1
[4]; rat, in vivo
  Toleration of the dose: well tolerated

## CC(C)C(C#N)(CCCN(C)CCc1ccccc1)c1ccccc1 (single isomer, unassigned; (+)) [(+) A, (+)-1,7-Diphenyl-3-methylaza-7-cyano-8-methylnonane]
Cerebral hypoxia; [17]
  ED 50% (dose at which 50% of the animals survived oxygen-deficient ventilation for 3 minutes): 100 mg/kg
[4]; [16]
  Efficacy relative to the racemate: about one fourth of the efficacy of the racemate
  ED 50% (pretreatment dose which increases the ATP level by 50% compared with the hypoxic control group): 50.3 mg/kg
  Relative activity: 0.27

## CC(C)C(C#N)(CCCN(C)CCc1ccccc1)c1ccccc1 (single isomer, unassigned; (-)) [(-) A, (-)-1,7-Diphenyl-3-methylaza-7-cyano-8-methylnonane]
Cerebral hypoxia
  Effect on number of animals surviving hypoxia after 3 minutes: increase the number of experimental animals which survive after 3 minutes
Cerebral hypoxia; [17]
  ED 50% (dose at which 50% of the animals survived oxygen-deficient ventilation for 3 minutes): 48 mg/kg
[4]; [16]
  Effective dose compared with that of the antipode: substantially lower than that of the dextrorotatory antipode
  Efficacy relative to the racemate: about twice as effective as the racemate
  ED 50% (pretreatment dose which increases the ATP level by 50% compared with the hypoxic control group): 6.6 mg/kg
  Relative activity: 2.06

## COc1ccc(CCN(C)CCCC(C#N)(c2ccc(OC)c(OC)c2)C(C)C)cc1OC (centres unmarked) [verapamil, reference compound]
[5]
  Known effects on the heart and the circulation: reduction in blood pressure and inhibition of AV conduction
Cerebral hypoxia
  Effect on number of animals surviving hypoxia after 3 minutes: ineffective
Cerebral hypoxia; after 3 minutes of hypoxia
  Survival of pretreated animals: dead after 3 minutes
[6]
  Myocardial contractility (maximum systolic rate of increase in pressure in the left ventricle): reduction in the myocardial contractility
  PQ interval: pronounced increase in the PQ interval
AV conduction; 0.4 mg/kg intravenously
  AV block: causes second degree AV blocks in all experimental animals
  PQ interval: greatly prolongs the PQ interval
[4]; [11]
  Percentage difference in the amount of ATP: 0%
  Percentage difference in the amount of CP: -9%
  Percentage difference in the amount of Glycogen: 9%
[4]; [18]
  Percentage difference in the amount of ATP: 9%
  Percentage difference in the amount of CP: 9%
  Percentage difference in the amount of Glycogen: -5%
[4]; [19]
  Percentage difference in the amount of ATP: 20%
  Percentage difference in the amount of CP: 21%
  Percentage difference in the amount of Glycogen: 2%
[4]; same dose as A or up to 4 times higher, 6 hours after oral administration
  Protective action against the hypoxia-induced reduction in myocardial CP, ATP and glycogen: no significant protective action
